What was measured:
GATA3-SOX4 interaction = biological target: T1, GATA3-SOX4 interaction (Homo sapiens, UniProt P23771); assay: Immunoprecipitation of GATA3 and SOX4; assay type: binding; details: 0 to 100 µM
T1 construct: we synthesized the recombinant full-length GATA3 protein with an N-terminal FLAG tag using the wheat cell-free system; made in house; host or cells: wheat cell-free protein synthesis system (WEPRO1240 kit), BirA added for biotinylation
Method: Co-immunoprecipitation analysis of GATA3 and SOX4 was conducted as follows. Immunoprecipitation of FLAG-tagged GATA3 in the presence of pyrrothiogatain (0 to 100 µM) was performed by mixing recombinant FLAG-GATA3 and AGIA-SOX4 with 10 µL of anti-FLAG M2 affinity agarose gel (cat#A2220, Sigma-Aldrich) by rotation at 4 °C for 2 h. The agarose gels were washed three times, and then the immunoprecipitated protein was detected by immunoblotting using anti-FLAG M2 antibody and anti-AGIA-HRP[36].

Th2 cell differentiation = assay: Intracellular cytokine staining, total CD4+ T cells under IL-2 conditions; assay type: cell-based, mouse; details: 30 µM, five days
Method: C57BL/6 mice were purchased from Clea (Clea Japan, Inc., Tokyo, Japan). Total CD4^+ T cells isolated from mouse spleen were prepared using a FITC anti-mouse CD4 antibody (Cat#100510, RM4–5, BioLegend) and anti-FITC-microbeads (Cat#130-097-050, Miltenyi Biotec). Naive CD4^+ T cells (CD44^low, CD62L^high) were prepared using a MojoSort Mouse CD4 T cell Isolation Kit (Cat#480033), BioLegend). Biotinylated anti-CD44 (Cat#103004, IM7) and anti-CD25 antibodies (Cat#102004, PC61) were purchased from BioLegend. CD4^+ T cells (7.5 × 10^5) were stimulated using immobilized anti-TCR-β mAb (3 µg/mL, H57–597, BioLegend) plus an anti-CD28 mAb (1.0 µg/mL, cat#40–0281, TONBO Biosciences) for 2 days, and then, the cells were further expanded under similar conditions for an additional 3 days. IL-2 conditions: IL-2 (10 ng/mL, Pepro Tech); Th2 conditions: IL-2 (10 ng/mL, Pepro Tech), IL-4 (1 ng/mL, Pepro Tech), and anti-IFN-γ mAb (2.5 µg/mL, cat#40–731, TONBO Biosciences). […]
The in vitro differentiated CD4^+ T cells were stimulated using an immobilized anti-TCR-β mAb (3 µg/ml, H57–597, BioLegend) for 6 h in the presence of monensin (2 µM). […] Flow cytometry was performed using a Gallios Flow Cytometer instrument (Beckman Coulter) and a FACS Caliber instrument (BD Biosciences) and the results were analysed using the FlowJo software program (Tree Star, Ashland, OR, USA). […]

[1] = system: cytokine, GATA3 and Tbx21 mRNA; assay: Quantitative RT-PCR, total CD4+ T cells under IL-2 conditions; assay type: cell-based, mouse; details: 30 µM, five days
Method: C57BL/6 mice were purchased from Clea (Clea Japan, Inc., Tokyo, Japan). Total CD4^+ T cells isolated from mouse spleen were prepared using a FITC anti-mouse CD4 antibody (Cat#100510, RM4–5, BioLegend) and anti-FITC-microbeads (Cat#130-097-050, Miltenyi Biotec). Naive CD4^+ T cells (CD44^low, CD62L^high) were prepared using a MojoSort Mouse CD4 T cell Isolation Kit (Cat#480033), BioLegend). Biotinylated anti-CD44 (Cat#103004, IM7) and anti-CD25 antibodies (Cat#102004, PC61) were purchased from BioLegend. CD4^+ T cells (7.5 × 10^5) were stimulated using immobilized anti-TCR-β mAb (3 µg/mL, H57–597, BioLegend) plus an anti-CD28 mAb (1.0 µg/mL, cat#40–0281, TONBO Biosciences) for 2 days, and then, the cells were further expanded under similar conditions for an additional 3 days. IL-2 conditions: IL-2 (10 ng/mL, Pepro Tech); Th2 conditions: IL-2 (10 ng/mL, Pepro Tech), IL-4 (1 ng/mL, Pepro Tech), and anti-IFN-γ mAb (2.5 µg/mL, cat#40–731, TONBO Biosciences). Th1 conditions: IL-2 (10 ng/mL, Pepro Tech), IL-12 (1 ng/mL, Pepro Tech), and anti-IL-4 mAb (2.5 µg/mL, cat#40–731, TONBO Biosciences). The cultured cells were subjected to intracellular staining, ELISA assay, and RT-PCR. All animal experiments received approval from the Ehime University Administrative Panel for Animal Care. All animal care was conducted in accordance with the guidelines of Ehime University.
Total RNA was isolated using the TRI Reagent (Molecular Research Center, Inc.). Reverse transcription and qRT-PCR were performed using the Transcriptor First Strand cDNA Synthesis Kit (Cat#04379012001, Roche) and FastStart Essential DNA Green Master (Cat#06402712001, Roche), according to the manufacturer’s protocols. qRT-PCR primers were used as follow; IL-4: 5′-GATCGGCATTTTCAACGAG-3′ (forward), 5′-[…]-3′ (reverse); IL-13: 5′-[…]-3′ (forward), 5′-[…]-3′ (reverse); IFN-γ: 5′-[…]-3′ (forward), 5′-[…]-3′ (reverse); IL-2: 5′-[…]-3′ (forward), 5′-[…]-3′ (reverse); Gata3: 5′-TTATCAAGCCCAAGCGAAG-3′ (forward), 5′-TGGTGGTGGTCTGACAGTT-3′ (reverse); and Tbx21: 5′-[…]-3′ (forward), 5′-[…]-3′ (reverse).
(C) Quantitative RT-PCR analysis of the pyrrothiogatain-treated Th2 cells shown in panel (A).

T1 sequence (P23771 whole entry): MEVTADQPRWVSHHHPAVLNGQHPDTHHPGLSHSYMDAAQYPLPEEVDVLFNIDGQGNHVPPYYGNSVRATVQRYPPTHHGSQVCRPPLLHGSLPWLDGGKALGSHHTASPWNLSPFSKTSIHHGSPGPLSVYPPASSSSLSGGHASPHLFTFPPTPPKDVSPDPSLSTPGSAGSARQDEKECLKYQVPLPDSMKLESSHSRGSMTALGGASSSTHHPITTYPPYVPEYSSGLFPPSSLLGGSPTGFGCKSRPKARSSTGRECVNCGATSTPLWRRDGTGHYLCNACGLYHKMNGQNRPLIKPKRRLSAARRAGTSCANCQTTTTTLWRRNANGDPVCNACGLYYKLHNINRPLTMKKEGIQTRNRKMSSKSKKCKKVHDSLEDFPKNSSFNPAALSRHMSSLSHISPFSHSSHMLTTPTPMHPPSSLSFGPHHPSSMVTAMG

- GATA3-SOX4 interaction by immunoprecipitation (GATA3-SOX4 interaction): dose-dependent decrease
SMILES: Cc1ccc(C)n1-c1ccsc1C(=O)O [Pyrrothiogatain, 3-(2,5-dimethyl-1H-pyrrol-1-yl)thiophene-2-carboxylic acid]
- Generation of IL-4-, IL-5-, and IL-13-producing cells (Th2 cell differentiation): repressed
- Number of Th1 cells producing IFN-γ (Th2 cell differentiation): increased
- Expression of GATA3, mRNA level [1]: not influenced
- Expression of Tbx21 [1]: increased
- mRNA expression of IFN-γ (RT-qPCR) [1]: Increased
- mRNA expression of IL-4, IL-5, IL-10, and IL-13 (RT-qPCR) [1]: decreased
